Measured values reported in ChEMBL document CHEMBL1201862, “PubChem BioAssay data set” (2004).
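Values below derive from 48-hour exposures of cells grown in 96-well plates, with endpoints linearly interpolated between the two concentrations bracketing the appropriate inhibition level. GI50 = concentration required for 50% inhibition of growth.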 Calls of active or inactive are those of the source. No stated cut-off is given here; in the data, active = GI50 up to about 1.1 µM and inactive = higher.

Experiments:
Experiment in all cases: NCI anticancer screen, dose series, 48 h
786-0 = test system: 786-0
A549 = test system: A549
ACHN = test system: ACHN
CAKI-1 = test system: CAKI-1
COLO 205 = test system: COLO 205
DLD-1 = test system: DLD-1
DMS-273 = test system: DMS-273
HCC 2998 = test system: HCC 2998
HCT-116 = test system: HCT-116
HCT-15 = test system: HCT-15
HL-60 = test system: HL-60
HOP-62 = test system: HOP-62
HOP-92 = test system: HOP-92
HT-29 = test system: HT-29
IGROV-1 = test system: IGROV-1
K562 = test system: K562
KM-20L2 = test system: KM-20L2
KM12 = test system: KM12
LOX IMVI = test system: LOX IMVI
LXFL 529 = test system: LXFL 529
M14 = test system: M14
MOLT-4 = test system: MOLT-4
Malme-3M = test system: Malme-3M
NCI-H226 = test system: NCI-H226
NCI-H23 = test system: NCI-H23
NCI-H460 = test system: NCI-H460
NCI-H522 = test system: NCI-H522
OVCAR-3 = test system: OVCAR-3
OVCAR-4 = test system: OVCAR-4
OVCAR-5 = test system: OVCAR-5
OVCAR-8 = test system: OVCAR-8
RPMI-8226 = test system: RPMI-8226
RXF 631 = test system: RXF 631
SF-268 = test system: SF-268
SF-295 = test system: SF-295
SF-539 = test system: SF-539
SK-MEL-28 = test system: SK-MEL-28
SK-MEL-2 = test system: SK-MEL-2
SK-OV-3 = test system: SK-OV-3
SN12C = test system: SN12C
SNB-19 = test system: SNB-19
SNB-75 = test system: SNB-75
SNB-78 = test system: SNB-78
SR = test system: SR
SW-620 = test system: SW-620
TK-10 = test system: TK-10
UACC-257 = test system: UACC-257
UACC-62 = test system: UACC-62
UO-31 = test system: UO-31
XF498 = test system: XF498
CCRF-CEM = test system: CCRF-CEM
DMS-114 = test system: DMS-114
EKVX = test system: EKVX
M19-MEL = test system: M19-MEL
RXF 393 = test system: RXF 393
U-251 = test system: U-251

For `O=C(CCC(=O)Nc1cccc(Cl)c1)CC(=O)c1ccc(Cl)cc1`, the GI50 (786-0) was > 100 µM (inactive), the GI50 (A549) was > 100 µM (inactive) and the GI50 (ACHN) was > 100 µM (inactive). The GI50 (CAKI-1) was > 100 µM (inactive), the GI50 (COLO 205) was > 100 µM (inactive) and the GI50 (DLD-1) was > 10 µM (inactive). The GI50 (DMS-273) was > 100 µM (inactive), the GI50 (HCC 2998) was > 100 µM (inactive) and the GI50 (HCT-116) was > 100 µM (inactive). The GI50 (HCT-15) was > 100 µM, the GI50 (HL-60) was > 100 µM (inactive) and the GI50 (HOP-62) was > 100 µM (inactive). The GI50 (HOP-92) was > 100 µM (inactive), the GI50 (HT-29) was > 100 µM (inactive) and the GI50 (IGROV-1) was > 100 µM (inactive). The GI50 (K562) was > 100 µM (inactive), the GI50 (KM-20L2) was > 100 µM (inactive) and the GI50 (KM12) was > 100 µM (inactive). The GI50 (LOX IMVI) was > 100 µM (inactive), the GI50 (LXFL 529) was > 100 µM (inactive) and the GI50 (M14) was > 100 µM (inactive). For the same compound, the GI50 (MOLT-4) was > 100 µM (inactive), the GI50 (Malme-3M) was > 100 µM (inactive) and the GI50 (NCI-H226) was > 100 µM (inactive). The GI50 (NCI-H23) was > 100 µM (inactive), the GI50 (NCI-H460) was > 100 µM (inactive) and the GI50 (NCI-H522) was > 100 µM (inactive). For the same compound, the GI50 (OVCAR-3) was > 100 µM (inactive), the GI50 (OVCAR-4) was > 100 µM (inactive) and the GI50 (OVCAR-5) was > 100 µM (inactive). For the same compound, the GI50 (OVCAR-8) was > 100 µM (inactive), the GI50 (RPMI-8226) was > 100 µM (inactive) and the GI50 (RXF 631) was > 100 µM (inactive). For the same compound, the GI50 (SF-268) was > 100 µM (inactive), the GI50 (SF-295) was > 100 µM (inactive) and the GI50 (SF-539) was > 100 µM (inactive). The GI50 (SK-MEL-28) was > 100 µM (inactive), the GI50 (SK-MEL-2) was > 100 µM (inactive) and the GI50 (SK-OV-3) was > 100 µM (inactive). The GI50 (SN12C) was > 100 µM (inactive), the GI50 (SNB-19) was > 100 µM (inactive) and the GI50 (SNB-75) was > 100 µM (inactive). The GI50 (SNB-78) was > 100 µM (inactive), the GI50 (SR) was > 100 µM (inactive) and the GI50 (SW-620) was > 100 µM (inactive). The GI50 (TK-10) was > 100 µM (inactive), the GI50 (UACC-257) was > 100 µM (inactive) and the GI50 (UACC-62) was > 100 µM (inactive). For the same compound, the GI50 (UO-31) was > 100 µM (inactive) and the GI50 (XF498) was > 100 µM (inactive).
`NC1N=Nc2ccccc21` (centres undefined) was tested, and the GI50 (786-0) was > 100 µM (inactive), the GI50 (A549) was > 100 µM (inactive) and the GI50 (ACHN) was > 100 µM (inactive). The GI50 (CAKI-1) was > 100 µM (inactive), the GI50 (CCRF-CEM) was > 100 µM (inactive) and the GI50 (COLO 205) was > 100 µM (inactive). For the same compound, the GI50 (DLD-1) was > 100 µM (inactive), the GI50 (DMS-114) was > 100 µM (inactive) and the GI50 (DMS-273) was > 100 µM (inactive). For the same compound, the GI50 (EKVX) was > 100 µM (inactive), the GI50 (HCC 2998) was > 100 µM (inactive) and the GI50 (HCT-116) was > 100 µM (inactive). The GI50 (HCT-15) was > 100 µM, the GI50 (HL-60) was > 100 µM (inactive) and the GI50 (HOP-62) was > 100 µM (inactive). For the same compound, the GI50 (HOP-92) was > 100 µM (inactive), the GI50 (HT-29) was > 100 µM (inactive) and the GI50 (IGROV-1) was > 100 µM (inactive). The GI50 (K562) was > 100 µM (inactive), the GI50 (KM-20L2) was > 100 µM (inactive) and the GI50 (KM12) was > 100 µM (inactive). The GI50 (LOX IMVI) was > 100 µM (inactive), the GI50 (LXFL 529) was > 100 µM (inactive) and the GI50 (M14) was > 100 µM (inactive). The GI50 (M19-MEL) was > 100 µM (inactive), the GI50 (MOLT-4) was > 100 µM (inactive) and the GI50 (Malme-3M) was > 100 µM (inactive). The GI50 (NCI-H226) was > 100 µM (inactive), the GI50 (NCI-H23) was > 100 µM (inactive) and the GI50 (NCI-H460) was > 100 µM (inactive). For the same compound, the GI50 (NCI-H522) was > 100 µM (inactive), the GI50 (OVCAR-3) was > 100 µM (inactive) and the GI50 (OVCAR-4) was > 100 µM (inactive). The GI50 (OVCAR-5) was > 100 µM (inactive), the GI50 (OVCAR-8) was > 100 µM (inactive) and the GI50 (RPMI-8226) was > 100 µM (inactive). The GI50 (RXF 393) was > 100 µM (inactive), the GI50 (RXF 631) was > 100 µM (inactive) and the GI50 (SF-268) was > 100 µM (inactive). The GI50 (SF-295) was > 100 µM (inactive), the GI50 (SF-539) was > 100 µM (inactive) and the GI50 (SK-MEL-28) was > 100 µM (inactive). The GI50 (SK-MEL-2) was > 100 µM (inactive), the GI50 (SK-OV-3) was > 100 µM (inactive) and the GI50 (SN12C) was > 100 µM (inactive). The GI50 (SNB-19) was > 100 µM (inactive), the GI50 (SNB-75) was > 100 µM (inactive) and the GI50 (SR) was > 100 µM (inactive). For the same compound, the GI50 (SW-620) was > 100 µM (inactive), the GI50 (TK-10) was > 100 µM (inactive) and the GI50 (U-251) was > 100 µM (inactive). For the same compound, the GI50 (UACC-257) was > 100 µM (inactive), the GI50 (UO-31) was > 100 µM (inactive) and the GI50 (XF498) was > 100 µM (inactive).
